# Measurements from patent publication US20250160330A1, “METHOD FOR CONTROLLING HARMFUL ARTHROPODS OR HARMFUL NEMATODES USING ZOANTHAMINE ANALOG” (SUMITOMO CHEMICAL COMPANY, LIMITED, priority 2022, published 2025).
# How the values were obtained:
# [1] = system: western flower thrips (Frankliniella occidentalis); assay: Test method 5: sprayed cucumber leaf, western flower thrips larvae; type: in vivo; conditions: 144 h, read-out: mortality of insects
# Method: (§1) Test compounds are made to a formulation according to a similar method to that described in the Formulation Example 5, and thereto is added water containing 0.03 v/v % of Shindain (registered trademark) to prepare a diluted solution containing a prescribed concentration of the test compound.
# Cucumber (Cucumber sativus) seedling (on the developmental stage of the second true leaf) is planted in a cup, and the diluted solutions are sprayed into the seedling at a ratio of 10 mL/seedling. Thereafter, the second true leaf is cut, and the cut leaf was placed in the cup, and approximately twenty (20) of larvae of western flower thrips (Frankliniella occidentalis) larvae are released onto the leaf. After 6 days, the number of the surviving insects is examined and the mortality of insects is calculated by the following equation.
# [2] = system: cotton worm (Spodoptera litura); assay: Test method 1: foliar spray on cabbage seedling, cotton worm larvae; type: in vivo; conditions: 144 h, read-out: mortality of insects
# Method: The test compounds are made to a formulation according to a similar method to that described in the Formulation Example 5, and thereto is added water containing 0.03 v/v % of Shindain (registered trademark) to prepare a diluted solution containing a prescribed concentration of the test compound.
# (§2) Cabbage (Brassicae oleracea) seedling (on the developmental stage of the third to fourth true leaf) is planted in a cup, and the diluted solutions are sprayed into the seedling at a ratio of 20 mL/seedling. Thereafter, ten (10) cotton worm (Spodoptera litura) at the third instar larval stage are released. After 6 days, the number of the surviving insects is counted, and the mortality of insects is calculated by the following equation.
# [3] = system: cotton aphids (Aphis gossypii); assay: Test method 3: foliar spray on cucumber seedling infested with cotton aphids; conditions: read-out: mortality of insects
# [4] = system: cotton worm (Spodoptera litura); assay: Test method 2: foliar spray on cabbage seedling, cotton worm larvae; type: in vivo; conditions: 144 h, read-out: mortality of insects
# Method: as §1, §2
# [5] = system: northern house mosquitos (Culex pipiens pipiens); assay: Test method 8: coated container contact test, northern house mosquito female adults; type: in vivo; conditions: 24 h, read-out: mortality of insects
# Method: The test compounds are dissolved with acetone containing a surfactant, and the solution was then poured into a container of 20 mL contents, and the solution was coating uniformly in the inner face of the container such that the test compound is made 10 mg/m^2, and the surfactant is made 40 mg/m^2, and the container is dried.
# Five (5) of female adult of northern house mosquitos (Culex pipiens pipiens) are placed in the contained, and the contained is put the lid. After the passing of the prescribed times, the state of the northern house mosquitos are examined, and the mortality is calculated by the following equation.
# [6] = system: silverleaf whiteflies (Bemisia tabaci); assay: Test method 6: foliar spray on tomato seedling with silverleaf whitefly larvae; conditions: in Solanum lycopersicum, 168 h, read-out: mortality of insects
# [7] = system: southern root-knot nematode (Meloidogyne incognita); assay: Test method 7: soil mixing and irrigation, tomato seedlings in nematode-polluted soil, root-knot index by Zeck; type: in vivo; conditions: 1,000 ppm
# Method: Test compounds 60 mg are dissolved in acetone 600 μL containing Tween (Registered trade mark) by 5%, and thereto is added water to prepare a diluted solution containing a prescribed concentration of the test compound.
# The diluted solution 20 mL are soil which is polluted with southern root-knot nematode (Meloidogyne incognita) 400 mL are mixed, and a root of healthy tomato seedlings (on the developmental stage of third to fourth true leaf) is transplanted in the soil. After the transplanting, the diluted solution 40 mL is irrigated onto soli of tomato seedlings. After 10 days, the roots are pull out from the soil, washed and the damage degree of the root (root-knot degree) is examined according to a root-knot index by Zeck (Zeck, W. M. (1971): Pflanzenschutz-Nachrichten. Bayer AG, 24, 141-144).
# • 0: No root-knots is recognized. • 1: By careful observation, several small root-knots can be recognized. • 2: Several small root-knots can be easily confirmed similarly to 1. • 3: Many small root-knots are found, and some of which are fused. A function of the root is not almost lost. • 4: Many small root-knots are found, and some large ones are found. […]
# [8] = system: brown planthoppers (Nilaparvata lugens); assay: Test method 4: foliar spray on rice seedling, brown planthopper larvae; type: in vivo; conditions: 144 h, read-out: mortality of insects
# Method: as §1
# Rice (Oryza sativa) seedling (on the developmental stage of the second true leaf) is planted in a cup, and the diluted solutions are sprayed into the seedling at a ratio of 10 mL/seedling. Thereafter, twenty (20) of 3rd instar larvae of brown planthoppers (Nilaparvata lugens) are released onto the rice leaves. After 6 days, the number of the surviving insects is examined and the mortality of insects is calculated by the following equation.
smiles,measurement,setting,value
CC1=CC(=O)[C@H]2CC(=O)[C@H]3[C@](C)([C@@H]2C1)[C@H](Cl)[C@@]12OC(=O)C[C@]3(C)[C@]1(C)CC[C@]13C[C@@H](C)C[C@H](CN12)O3 [AA-1],mortality at 200 ppm,[1],≥ 90%
same,mortality at 200 ppm,[2],≥ 80%
same,mortality at 200 ppm,[3],≥ 90%
same,mortality at 200 ppm,[4],≥ 80%
same,mortality at 10 mg/m2,[5],≥ 80%
same,mortality at 200 ppm,[6],≥ 90%
same,root-knot index,"[7]; 20 mL mixed with 400 mL soil plus 40 mL irrigation, tomato seedlings, after 10 days, untreated group index 4","1 (By careful observation, several small root-knots can be recognized.)"
same,formation of root-knot,[7]; versus untreated group,reduced a formation of root-knot
same,mortality at 200 ppm,[8],≥ 90%
